In patent publication US20250040503A1, “METHOD FOR PRODUCING HAPLOID, AND DOUBLED HAPLOID BETA VULGARIS PLANTS BY MICROSPORE CULTURE” (KWS SAAT SE & Co. KGaA, priority 2021, published 2025):
“Also recorded” adds a separate entry of the source.

Tested on: Beta vulgaris (sugar beet) microspores
Experiment: Callus induction from isolated sugar beet microspores (microspore culture)
Format: cell-based
Details: for callus induction potential in comparison to TSA: comparator TSA 5 μM, same time point, duration and buffer
Source text: The experimental set-up is detailed in the below Examples. In the Figures, each column represents a different genotype. […] Time point, duration and buffer used were always identical for all treatments in the different rows. The different rows thus only differ from each other in the kind of inhibitor used.
Bracteoles are cut off the inflorescence and buds bigger than 1.8 mm are removed. Remaining part is divided into smaller pieces, preferably pieces of 1-1.5 cm. Buds smaller than 1.8 mm contain typically microspores at the tetrad and uninuclear developmental stage, which are the optimal developmental stages for further progressing. However, it should be noted that due to broad variation of different genotypes and donor sources (e.g., monogerm and multigerm), the correlation between the maximum flower bud size and nuclear stages of the microspores needs to be established for each genotype individually. The determination of the nuclear stages is carried out using a fluorescence-based staining method. The method contains fixation of the cells for instances with Ethanol acetic acid and DAPI staining (Kim, Moon-Za, and In-Chang Jang. “Rapid Assessment of Microspore Development Stage in Pepper Using DAPI and Ferric chloride.” Journal of Plant Biotechnology 2.3 (2000): 129-134.).
The flower shoot segments are transferred to isolation buffer, e.g., in a blending device and 40 ml (isolation buffer, Table 1) is added. The Isolation buffer contains macro- and microsalts, amino acids, monosaccharides and one or more complex protein compositions, pH is adjusted to pH 7.5. The complex protein composition or its source comprises preferably hydrolysed or partially hydrolysed protein matter or protein source. It can derive from any source that is known or that be applicable in addition, such as milk (such as, casein, whey), animal (such as, meat, fish), cereal (such as, rice, corn), plant (such as, soybean) or its combination. This proteinoid comprises milk protein isolates, as described herein lactoprotein concentrate, casein isolates, casein hydrolysate, lactalbumin, casein-sodium or calcium caseinate, full cow's milk, partially or completely skimmed milk, soy protein isolate, soybean protein concentrate etc. In one embodiment, complex protein composition comprises the protein source of the milk protein deriving from bovine milk.
The material is homogenized, e.g., by means of a homogenizer such as a Waring blender or sonication device at around 3000 rpm for 1 min. The crude cell suspension is passed stepwise through cell strainers of pore sizes between 25 μm and 100 μm. The purified suspension is transferred into tubes for subsequent centrifugation at ˜200 g for 3 min.
The supernatant is removed and the pellet is resuspended in a suitable amount of isolation buffer. An aliquot of the cell solution is taken for evaluation of the number of cells per ml by means of a counting chamber. Cell density is adjusted preferably to a cell density of 25,000 to 500,000 cells with TM media.
If the HDACi trichostatin A (TSA) is used, it is dissolved in dimethylsulfoxide (DMSO) to a final concentration of between 1 nM and 10 μM, preferably 100 nM to 10 μM, more preferably 1 μM to 10 μM, depending on the genotype and the donor sources (e.g., monogerm and multigerm). Other non-limiting examples of HDACi which may be used belong to the class of hydroxamic acids and hydroxamates, such as vorinostat (SAHA), belinostat (PXD101), LAQ824, and panobinostat (LBH589). Other non-limiting examples of HDACis for use according to the invention include cyclic tetrapeptides (such as trapoxin B) and depsipeptides, such as romidepsin (FK228), benzamides such as entinostat (MS-275), C1994, and mocetinostat (MGCD0103), electrophilic ketones, and aliphatic acid compounds such as phenylbutyrate and valproic acid.
After 1 to 10 days incubation at 32° C. the TSA is removed by centrifugation preferably at ˜200 g.

CC(=O)N1c2ccc(-c3ccc(C(=O)O)cc3)cc2[C@H](Nc2ccc(Cl)cc2)C[C@@H]1C [I-Bet 726]
callus induction (I-Bet 726 1 μM, 2.5 μM and 5 μM, FIG. 7): No callus induction

Cc1sc2c(c1C)C(c1ccc(Cl)cc1)=N[C@@H](CC(N)=O)c1nnc(C)n1-2 [CPI-203]
callus induction (CPI-203 1 μM, 2.5 μM and 5 μM, 6 genotypes, FIG. 6): slight positive effect; also recorded: very small, but positive, effect
callus induction potential in comparison to TSA: performed worse than TSA

O=C(CCCCCCC(=O)Nc1ccccc1)NO [SAHA, vorinostat]
toxicity in comparison to TSA (SAHA 1 μM and 5 μM vs TSA 5 μM, microspore culture): more toxic
callus induction (SAHA 1 μM and 5 μM, same buffer as TSA, six genotypes, FIG. 4): good effect on some genotypes
callus induction potential in comparison to TSA: less effective than TSA

CC(/C=C/C(=O)NO)=C\[C@@H](C)C(=O)c1ccc(N(C)C)cc1 [TSA, trichostatin A]
callus induction (TSA 5 μM, six genotypes, positive control of FIG. 4 to FIG. 7): strong callus induction in all six genotypes
callus induction performance at other concentrations (TSA in the lower μM or even nM range and in higher concentrations, data not shown): performed well
callus induction potential in comparison to TSA: performed best
